Data taken from paper PMC8061941 (PLoS ONE, 2021).
“Also recorded” adds a separate entry of the source. Square brackets hold non-standard residues; d marks the D form. Ends that are not written are not given here. Peptide text beside a SMILES is read from it.

Experiments:
[1] = Mass spectrometry analysis of Ringers solution from Ussing chambers during ex vivo recovery (degradation and fragment formation); type: in vitro ADME, pig; details: for Fragment detected in Ringers solution during ex vivo recovery: Ussing chambers with ischemia-injured jejunum in presence of parent peptide (LA or A6), MS analysis, N = 4; for half-life: pig, tissue, pH 7.4, Ussing chamber Ringers solution, ex vivo recovery 240 minutes, LC-MS/MS, n = 4, read-out: Half-life in ischemic injured jejunum tissue
Text: After 45-minutes of ischemia, the pigs were euthanized, and intestinal segments were collected. Non-ischemic control tissue was also collected at this time. Following tissue collection, the seromuscular layer was stripped from the mucosa while the tissue was bathed in oxygenated (95% O2, 5% CO2) Ringer’s solution (in mmol/L: 154 Na^+, 6.3 K^+, 137 Cl^-, and 24 HCO3^-; pH 7.4). The mucosa was subsequently mounted in 1.1-cm^2 aperture Ussing chambers, as described in previous studies. Tissues were bathed on both the mucosal and serosal sides with 10mL Ringer’s solution. The mucosal bathing solution contained 10mM mannitol while the serosal side was osmotically balanced with 10mM glucose. Bathing solutions were oxygenated (95% O2, 5% CO2) and circulated in water-jacketed reservoirs. The spontaneous potential difference (PD) was measured using Ringer-agar bridges connected to calomel electrodes, and the PD was short-circuited through Ag-AgCl electrodes using a voltage clamp that was corrected for fluid resistance. TER (Ω·cm^2) was calculated from the spontaneous PD and short-circuit current (Isc). If the spontaneous PD was between -1.0 and 1.0 mV, tissues were current clamped at ± 100 μA for 5-seconds, and the PD was recorded. Isc and PD were recorded at 15-minute intervals over a 4-hour experiment. After tissues were mounted on Ussing chambers, all tissues were allowed to acclimate for a period of 30-minutes to establish stable baseline measurements, after which experimental, single-dose treatments of LA, LA fragments (F1, F2, or F3) with or without LA, A6, or A6 with or without A6 fragments (A6F1 or A6F2) were added to the apical chamber. For the microdosing regimen of LA, multiple doses at various concentrations of LA were added initially after the 30-minute acclimation period and every 45-minutes following this initial dose. Tissues were monitored by measuring transepithelial resistance (TER) for 240 minutes. Samples of Ringers solution were collected at select timepoints and quenched with 5% trifluoroacetic acid (TFA) solution (in 80% acetonitrile (ACN): 20% DI water). […] Standardization of ischemic injury severity between intestinal loops was standardized using a similar method as previously described in another intestinal mucosal injury model. First, T = 0 TER values from separate studies utilizing juvenile porcine intestinal ischemic tissue across three years were averaged (24 Ω·cm^2), and the standard deviation of this dataset was calculated (11 Ω·cm^2). Tissues with a T = 0 TER value exceeding one standard deviation of the mean (i.e., < 13 or > 35 Ω·cm^2) were excluded from experiments and data analysis.

aminopeptidase M = molecular target: T1, aminopeptidase M (Sus scrofa, UniProt P15145); details: LA 0.2 mg/mL in SIF without pancreatin pH 6.5, 10 μM MgCl2, AM 0.66 unit/mL (porcine kidney), 37°C; UPLC-MS/MS; two separate runs
T1 sequence (P15145 1-963): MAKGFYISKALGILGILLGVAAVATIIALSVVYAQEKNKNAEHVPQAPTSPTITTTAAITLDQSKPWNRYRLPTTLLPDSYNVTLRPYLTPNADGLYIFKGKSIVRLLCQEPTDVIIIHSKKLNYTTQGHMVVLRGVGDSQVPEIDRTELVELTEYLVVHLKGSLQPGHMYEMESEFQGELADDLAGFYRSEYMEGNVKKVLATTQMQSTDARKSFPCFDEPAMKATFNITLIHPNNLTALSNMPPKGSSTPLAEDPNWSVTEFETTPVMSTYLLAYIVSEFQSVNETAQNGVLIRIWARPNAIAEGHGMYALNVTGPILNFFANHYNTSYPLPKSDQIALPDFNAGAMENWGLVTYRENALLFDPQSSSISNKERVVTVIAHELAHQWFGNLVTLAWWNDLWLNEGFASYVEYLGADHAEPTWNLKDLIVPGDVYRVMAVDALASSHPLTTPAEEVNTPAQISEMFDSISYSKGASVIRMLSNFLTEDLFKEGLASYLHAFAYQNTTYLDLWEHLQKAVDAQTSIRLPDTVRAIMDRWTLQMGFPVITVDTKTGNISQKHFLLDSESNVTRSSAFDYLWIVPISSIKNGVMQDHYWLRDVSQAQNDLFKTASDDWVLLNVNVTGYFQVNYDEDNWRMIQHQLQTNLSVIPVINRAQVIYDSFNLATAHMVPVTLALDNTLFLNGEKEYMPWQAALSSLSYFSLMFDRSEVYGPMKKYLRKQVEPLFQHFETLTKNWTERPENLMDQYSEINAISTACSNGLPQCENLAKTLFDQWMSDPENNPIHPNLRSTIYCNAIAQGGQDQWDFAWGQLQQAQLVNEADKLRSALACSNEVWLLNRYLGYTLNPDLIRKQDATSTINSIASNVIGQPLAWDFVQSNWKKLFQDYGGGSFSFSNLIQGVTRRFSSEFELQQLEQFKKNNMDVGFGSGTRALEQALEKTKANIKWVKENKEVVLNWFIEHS
Procedure: Aminopeptidase M (AM) degradation of LA in vitro was carried out as follows. LA solution (0.2 mg/mL) in simulated intestinal fluid (SIF) (without Pancreatin), USP XXII Formulation: Ricca Chemical) pH 6.5 containing MgCl2 (10 μM; catalyst support) was combined with AM (porcine kidney: Sigma) solution (final AM concentration is 0.66 unit/mL) in a vial. The combined mixture was incubated at 37°C in a shaker water bath, and samples for UPLC-MS analysis were collected at various timepoints quenched with 5% TFA solution (in 80% ACN: 20% DI water). Quenched samples were centrifuged at 13000xg for 5-minutes and the resulting supernatants were stored at -80°C for future MS analysis.
A simple and sensitive liquid chromatography/tandem mass spectrometric (LC-MS/MS) method was developed for the identification and quantification of LA and its digestive fragments in the enzyme digest solution and other matrices. Samples were prepared with simple ACN and TFA in water quenching of the enzyme activity and precipitation of protein(s). The supernatant was then diluted appropriately and analyzed directly using the UPLC-MS/MS method Chromatographic separations were achieved on a C18 reversed phase column using an ACN and TFA-water gradient. The detection was performed in MS/MS mode via positive electrospray ionization (ESI+) interface.
A Waters Quattro Xevo TOD mass spectrometer equipped with an electrospray ionization source and a Waters Acquity™ UPLC BEH system (Waters, Milford, MA, USA) with a binary solvent and a sample manager was used in this study. The LC column (Waters, C18, 50×2.1 mm, 1.7 μm) was operated at 35°C and the autosampler was operated at ambient temperature. A binary mobile phase (mobile phase A and mobile phase B) with a linear solvent gradient system was used for the chromatographic separations of larazotide and its digestive fragments. Mobile phase A, 0.02% TFA in water and mobile phase B, 0.02% TFA in ACN. The UPLC-MS/MS method was qualified for the determination and identification of larazotide and the larazotide digestive fragments in the enzyme digest solution.

[2] = Ringers solution bathing ischemia-injured porcine jejunal mucosa mounted in Ussing chambers (ex vivo recovery); details: Yorkshire crossbred pigs, up to 240 minutes
Aminopeptidase M (AM) = assay: AM (porcine kidney: Sigma) in simulated intestinal fluid (SIF) (without Pancreatin) pH 6.5 containing MgCl2 (10 μM); details: 37°C, up to 180 minutes

Molecule | Fragment detected in Ringers solution during ex vivo recovery [1] | Degradation by aminopeptidase M and presence of fragments (aminopeptidase M) | further results
VLVQPG [F2] | are formed | not being detected after 90 minutes | –
GGVLVQPG [LA, Larazotide acetate] | – | fragmented throughout the entirety of the experiment | half-life [1]: 35 min
CC(C)C[C@@H](NC(=O)[C@H](N)C(C)C)C(=O)N[C@@H](C(=O)N[C@H](CCC(N)=O)C(=O)N1CCC[C@@H]1C(=O)O)C(C)C [A6F4] (H-[dV][dL][dV][dQ][dP]-OH) | formation | – | –
VLVQP [F4] | detected | – | –
CC(C)C[C@@H](NC(=O)[C@H](NC(=O)CN)C(C)C)C(=O)N[C@@H](C(=O)N[C@H](CCC(N)=O)C(=O)N1CCC[C@@H]1C(=O)NCC(=O)O)C(C)C [A6F1] (H-G[dV][dL][dV][dQ][dP]G-OH) | predominant fragment formed | – | –
CC(C)C[C@@H](NC(=O)[C@H](NC(=O)CNC(=O)CN)C(C)C)C(=O)N[C@@H](C(=O)N[C@H](CCC(N)=O)C(=O)N1CCC[C@@H]1C(=O)NCC(=O)O)C(C)C [A6] (H-GG[dV][dL][dV][dQ][dP]G-OH) | – | – | Stability to brush-border enzyme degradation compared with LA ([1]; ex vivo stability data, Ussing chamber): significantly more stable; half-life [1]: 78 min
H-GGVLVQPG-OH | – | – | cleaved bond [2]: Gly-Val; also recorded: Pro-Gly, major; cleaved bond (Aminopeptidase M (AM)): Gly-Val
GVLVQPG [F1] | are formed | found in all samples collected during the run | –
CC(C)C[C@@H](NC(=O)[C@H](N)C(C)C)C(=O)N[C@@H](C(=O)N[C@H](CCC(N)=O)C(=O)N1CCC[C@@H]1C(=O)NCC(=O)O)C(C)C [A6F2] (H-[dV][dL][dV][dQ][dP]G-OH) | formation | – | –
GGVLVQP [F3] | highest concentration out of all four fragments | – | –
